What was measured:
[1] = biological target: High affinity nerve growth factor receptor (Homo sapiens) (UniProt P04629); assay: Inhibition of human TrkA (440 to end residues) assessed as residual activity at 1 uM using KKKSPGEYVNIEFG as substrate measured after 40 mins in presence of [gamma33P]ATP by scintillation counting method relative to control
[2] = biological target: Serine/threonine-protein kinase SBK1 (Homo sapiens) (UniProt Q52WX2); assay: Inhibition of recombinant full-length human SBK1 assessed as residual activity at 1 uM using KKLRRTLSVA as substrate measured after 120 mins in presence of [gamma33P]ATP by scintillation counting method relative to control
Serine/threonine-protein kinase SBK1 (Homo sapiens), sequence (Q52WX2 whole entry, the tested form may be a part): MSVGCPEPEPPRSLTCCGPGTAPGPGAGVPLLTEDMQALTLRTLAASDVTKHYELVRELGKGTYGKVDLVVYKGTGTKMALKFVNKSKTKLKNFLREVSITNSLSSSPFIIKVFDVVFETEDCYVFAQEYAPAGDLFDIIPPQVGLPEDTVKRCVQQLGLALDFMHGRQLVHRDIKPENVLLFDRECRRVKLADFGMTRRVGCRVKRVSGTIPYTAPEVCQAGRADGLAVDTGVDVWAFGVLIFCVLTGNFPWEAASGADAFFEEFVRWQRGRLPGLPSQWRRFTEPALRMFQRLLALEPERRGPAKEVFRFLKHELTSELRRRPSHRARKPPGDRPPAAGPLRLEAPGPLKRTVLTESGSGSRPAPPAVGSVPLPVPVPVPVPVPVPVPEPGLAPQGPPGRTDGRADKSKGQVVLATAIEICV

[3] = biological target: Homeodomain-interacting protein kinase 1 (Homo sapiens) (UniProt Q86Z02); assay: Inhibition of human HIPK1 (158 to 555 residues) assessed as residual activity at 1 uM using myelin basic protein as substrate after 40 mins by [gamma-33ATP] radiometric assay relative to control
[4] = biological target: Mitogen-activated protein kinase kinase kinase kinase 2 (Homo sapiens) (UniProt Q12851); assay: Inhibition of recombinant human GCK (1 to 473 residues) assessed as residual activity at 1 uM using myelin basic protein as substrate at 40 mins in presence of [gamma-33ATP] by scintillation counting based radiometry assay relative to control
Mitogen-activated protein kinase kinase kinase kinase 2 (Homo sapiens), sequence (Q12851 whole entry, the tested form may be a part): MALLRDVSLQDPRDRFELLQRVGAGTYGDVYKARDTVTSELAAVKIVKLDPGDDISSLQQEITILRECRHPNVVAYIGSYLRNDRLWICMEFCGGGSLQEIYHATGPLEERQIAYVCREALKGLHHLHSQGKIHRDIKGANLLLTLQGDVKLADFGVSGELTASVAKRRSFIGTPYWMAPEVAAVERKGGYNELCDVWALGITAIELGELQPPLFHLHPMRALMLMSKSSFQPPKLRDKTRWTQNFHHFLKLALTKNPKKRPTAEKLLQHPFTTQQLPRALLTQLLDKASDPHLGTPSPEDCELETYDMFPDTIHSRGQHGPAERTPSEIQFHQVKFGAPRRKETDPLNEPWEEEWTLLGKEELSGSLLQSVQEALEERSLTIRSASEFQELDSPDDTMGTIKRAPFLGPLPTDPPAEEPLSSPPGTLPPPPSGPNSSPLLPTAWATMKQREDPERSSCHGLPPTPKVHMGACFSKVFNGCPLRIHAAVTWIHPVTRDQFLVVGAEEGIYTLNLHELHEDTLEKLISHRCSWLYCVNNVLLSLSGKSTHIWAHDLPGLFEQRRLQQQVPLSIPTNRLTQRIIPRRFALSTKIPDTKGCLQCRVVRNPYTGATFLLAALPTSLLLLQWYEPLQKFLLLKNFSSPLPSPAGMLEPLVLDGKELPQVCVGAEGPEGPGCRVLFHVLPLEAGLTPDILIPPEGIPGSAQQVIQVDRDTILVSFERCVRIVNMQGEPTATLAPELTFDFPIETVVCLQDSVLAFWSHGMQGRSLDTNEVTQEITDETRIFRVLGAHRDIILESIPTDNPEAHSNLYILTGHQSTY

[5] = tested on: Mitogen-activated protein kinase kinase kinase 10 (MLK2); assay: Inhibition of recombinant human MLK2 (1 to 499 residues) assessed as residual activity at 1 uM using myelin basic protein as substrate incubated for 40 mins in presence of [gamma-33ATP by scintillation counting based radiometry assay relative to control
[6] = biological target: Serine/threonine-protein kinase 17B (Homo sapiens) (UniProt O94768); assay: Inhibition of recombinant human DRAK2 assessed as residual activity at 1 uM using KKRPQRRYSNVF as substrate at 120 mins in presence of [gamma-33ATP] by scintillation counting based radiometry assay relative to control
[7] = biological target: Mitogen-activated protein kinase kinase kinase kinase 3 (Homo sapiens) (UniProt Q8IVH8); assay: Inhibition of recombinant human MAP4K3 (1 to 291 residues) assessed as residual activity at 1 uM using RLGRDKYKTLRQIRQ as substrate incubated for 40 mins in presence of [gamma-33ATP by scintillation counting based radiometry assay relative to control
[8] = biological target: Mitogen-activated protein kinase kinase kinase 11 (Homo sapiens) (UniProt Q16584); assay: Inhibition of recombinant human MLK3 assessed as residual activity at 1 uM using by scintillation counting based radiometry assay relative to control
[9] = biological target: Tyrosine-protein kinase HCK (Homo sapiens) (UniProt P08631); assay: Inhibition of human HCK activated (230 to 497 residues) assessed as residual activity at 1 uM using GGMEDIYFEFMGGKKK as substrate after 40 mins by [gamma-33ATP] radiometric assay relative to control
Tyrosine-protein kinase HCK (Homo sapiens), sequence (P08631 2-526 limits assumed): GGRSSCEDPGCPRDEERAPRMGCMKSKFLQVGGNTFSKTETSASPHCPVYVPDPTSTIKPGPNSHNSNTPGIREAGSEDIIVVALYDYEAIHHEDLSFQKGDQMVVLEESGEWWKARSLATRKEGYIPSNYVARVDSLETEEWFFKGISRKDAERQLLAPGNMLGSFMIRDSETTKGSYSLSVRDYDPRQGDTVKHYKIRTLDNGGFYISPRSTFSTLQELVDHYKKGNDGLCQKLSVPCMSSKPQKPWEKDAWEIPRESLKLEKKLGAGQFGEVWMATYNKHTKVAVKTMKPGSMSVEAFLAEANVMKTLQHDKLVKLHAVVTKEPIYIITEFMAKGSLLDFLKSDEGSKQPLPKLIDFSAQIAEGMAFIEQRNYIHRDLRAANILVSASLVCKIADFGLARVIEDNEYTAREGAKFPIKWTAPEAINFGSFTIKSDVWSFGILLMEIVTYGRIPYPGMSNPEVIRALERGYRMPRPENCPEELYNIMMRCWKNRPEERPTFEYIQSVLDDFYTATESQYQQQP

[10] = biological target: Receptor tyrosine-protein kinase erbB-4 (Homo sapiens) (UniProt Q15303); assay: Inhibition of recombinant human ERBB4 (706 to 991 residues) assessed as residual activity at 1 uM using poly(Glu, Tyr) 4:1 as substrate at 40 mins in presence of [gamma-33ATP] by scintillation counting based radiometry assay relative to control
Receptor tyrosine-protein kinase erbB-4 (Homo sapiens), sequence (Q15303 whole entry, the tested form may be a part): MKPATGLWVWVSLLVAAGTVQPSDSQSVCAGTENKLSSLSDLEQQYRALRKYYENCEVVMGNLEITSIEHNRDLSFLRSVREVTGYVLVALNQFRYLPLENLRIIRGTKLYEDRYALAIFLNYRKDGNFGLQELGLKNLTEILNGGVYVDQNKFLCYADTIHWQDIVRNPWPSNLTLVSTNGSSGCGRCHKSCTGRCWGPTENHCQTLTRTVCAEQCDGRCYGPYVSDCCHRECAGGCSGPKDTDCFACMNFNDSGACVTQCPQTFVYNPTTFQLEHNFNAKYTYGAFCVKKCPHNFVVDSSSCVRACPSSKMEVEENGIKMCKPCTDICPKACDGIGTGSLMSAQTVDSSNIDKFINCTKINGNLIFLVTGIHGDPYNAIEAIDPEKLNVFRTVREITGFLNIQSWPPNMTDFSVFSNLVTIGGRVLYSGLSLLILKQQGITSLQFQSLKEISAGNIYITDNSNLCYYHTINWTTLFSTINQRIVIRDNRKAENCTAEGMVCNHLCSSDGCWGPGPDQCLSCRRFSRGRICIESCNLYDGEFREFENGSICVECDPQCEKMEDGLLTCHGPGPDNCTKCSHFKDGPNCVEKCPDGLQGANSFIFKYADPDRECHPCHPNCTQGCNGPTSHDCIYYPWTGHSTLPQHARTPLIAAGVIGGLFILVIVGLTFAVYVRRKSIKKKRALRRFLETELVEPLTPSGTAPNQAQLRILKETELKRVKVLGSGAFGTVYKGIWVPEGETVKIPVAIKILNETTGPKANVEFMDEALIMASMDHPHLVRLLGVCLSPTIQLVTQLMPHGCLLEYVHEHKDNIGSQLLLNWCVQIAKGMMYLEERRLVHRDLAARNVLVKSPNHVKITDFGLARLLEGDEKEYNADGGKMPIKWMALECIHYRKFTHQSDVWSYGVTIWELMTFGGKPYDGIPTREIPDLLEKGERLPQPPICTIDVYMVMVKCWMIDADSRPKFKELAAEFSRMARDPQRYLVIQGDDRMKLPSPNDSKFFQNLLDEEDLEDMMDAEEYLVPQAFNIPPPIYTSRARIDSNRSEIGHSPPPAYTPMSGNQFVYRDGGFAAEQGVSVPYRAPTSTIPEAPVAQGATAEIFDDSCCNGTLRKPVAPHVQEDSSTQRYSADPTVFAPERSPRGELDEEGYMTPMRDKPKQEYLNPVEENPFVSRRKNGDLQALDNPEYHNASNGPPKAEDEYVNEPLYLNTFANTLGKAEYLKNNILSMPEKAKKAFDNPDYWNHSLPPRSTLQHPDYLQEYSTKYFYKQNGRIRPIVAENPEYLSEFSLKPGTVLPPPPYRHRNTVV

[11] = biological target: Tyrosine-protein kinase TXK (Homo sapiens) (UniProt P42681); assay: Inhibition of human Txk (256 to end residues) assessed as residual activity at 1 uM using GEEPLYWSFPAKKK as substrate measured after 40 mins in presence of [gamma33P]ATP by scintillation counting method relative to control
[12] = biological target: Protein kinase C epsilon type (Homo sapiens) (UniProt Q02156); assay: Inhibition of recombinant human PKCepsilon (2 to end residues) assessed as residual activity at 1 uM using ERMRPRKRQGSVRRRV as substrate measured after 40 mins in presence of [gamma33P]ATP by scintillation counting method relative to control
Protein kinase C epsilon type (Homo sapiens), sequence (Q02156 whole entry): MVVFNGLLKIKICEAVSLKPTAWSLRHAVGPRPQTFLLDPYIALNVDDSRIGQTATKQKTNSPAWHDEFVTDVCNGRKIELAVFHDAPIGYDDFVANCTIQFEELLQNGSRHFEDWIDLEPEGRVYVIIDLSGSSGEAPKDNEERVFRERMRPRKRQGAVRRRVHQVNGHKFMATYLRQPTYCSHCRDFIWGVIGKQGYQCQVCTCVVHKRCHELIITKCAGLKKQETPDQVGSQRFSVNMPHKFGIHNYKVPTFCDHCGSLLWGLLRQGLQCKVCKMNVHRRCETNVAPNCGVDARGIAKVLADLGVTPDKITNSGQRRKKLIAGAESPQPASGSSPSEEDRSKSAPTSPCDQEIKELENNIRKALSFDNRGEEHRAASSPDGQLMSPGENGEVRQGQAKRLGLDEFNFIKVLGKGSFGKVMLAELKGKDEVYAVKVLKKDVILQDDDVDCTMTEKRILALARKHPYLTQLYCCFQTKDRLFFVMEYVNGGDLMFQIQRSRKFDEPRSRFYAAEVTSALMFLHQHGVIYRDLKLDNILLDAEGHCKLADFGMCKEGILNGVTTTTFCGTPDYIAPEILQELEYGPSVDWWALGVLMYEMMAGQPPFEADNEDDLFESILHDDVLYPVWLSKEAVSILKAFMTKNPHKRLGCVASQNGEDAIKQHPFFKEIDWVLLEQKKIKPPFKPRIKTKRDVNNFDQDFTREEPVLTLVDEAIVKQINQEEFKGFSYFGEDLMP

[13] = biological target: Dual specificity protein kinase CLK4 (Homo sapiens) (UniProt Q9HAZ1); assay: Inhibition of recombinant human CLK4 (128 to end residues) assessed as residual activity at 1 uM using YRRAAVPPSPSLSR as substrate incubated 40 mins in presence of [gamma-33ATP] by scintillation counting based radiometry assay relative to control
[14] = biological target: Mitogen-activated protein kinase 9 (Homo sapiens) (UniProt P45984); assay: Inhibition of human JNK2alpha2 assessed as residual activity at 1 uM using ATF2 as substrate after 40 mins by [gamma-33ATP] radiometric assay relative to control
[15] = biological target: Serine/threonine-protein kinase DCLK3 (Homo sapiens) (UniProt Q9C098); assay: Inhibition of recombinant human DCAMKL3 (345 to end residues) assessed as residual activity at 1 uM using KKLNRTLSFAEPG as substrate at 40 mins in presence of [gamma-33ATP] by scintillation counting based radiometry assay relative to control
Serine/threonine-protein kinase DCLK3 (Homo sapiens), sequence (Q9C098 whole entry): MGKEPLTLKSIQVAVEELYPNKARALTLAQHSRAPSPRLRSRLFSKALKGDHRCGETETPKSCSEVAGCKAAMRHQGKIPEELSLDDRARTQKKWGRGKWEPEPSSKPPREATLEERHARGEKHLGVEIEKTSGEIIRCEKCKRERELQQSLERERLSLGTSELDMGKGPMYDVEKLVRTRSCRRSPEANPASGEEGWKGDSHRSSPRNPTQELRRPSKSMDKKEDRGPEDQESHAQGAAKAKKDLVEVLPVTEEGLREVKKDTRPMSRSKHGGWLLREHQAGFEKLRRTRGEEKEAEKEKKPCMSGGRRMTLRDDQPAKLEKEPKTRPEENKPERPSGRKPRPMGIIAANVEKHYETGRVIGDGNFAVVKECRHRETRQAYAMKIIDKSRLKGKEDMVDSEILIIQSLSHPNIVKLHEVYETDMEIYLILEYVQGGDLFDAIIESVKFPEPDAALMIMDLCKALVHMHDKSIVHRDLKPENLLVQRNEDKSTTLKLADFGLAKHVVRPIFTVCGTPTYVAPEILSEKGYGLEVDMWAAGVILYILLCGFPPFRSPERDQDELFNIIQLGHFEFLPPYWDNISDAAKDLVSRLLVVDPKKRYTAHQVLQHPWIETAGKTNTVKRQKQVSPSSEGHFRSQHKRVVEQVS

[16] = biological target: Ribosomal protein S6 kinase alpha-1 (Homo sapiens) (UniProt Q15418); assay: Inhibition of recombinant full length human Rsk1 assessed as residual activity at 1 uM using KKKNRTLSVA as substrate measured after 40 mins in presence of [gamma33P]ATP by scintillation counting method relative to control
[17] = biological target: 5'-AMP-activated protein kinase catalytic subunit alpha-2 (Homo sapiens) (UniProt P54646); assay: Inhibition of recombinant full length human AMPKalpha2 assessed as residual activity at 1 uM using AMARAASAAALAR as substrate incubated for 40 mins in presence of [gamma-33ATP] by scintillation counting based radiometry assay relative to control
5'-AMP-activated protein kinase catalytic subunit alpha-2 (Homo sapiens), sequence (P54646 whole entry, looked up): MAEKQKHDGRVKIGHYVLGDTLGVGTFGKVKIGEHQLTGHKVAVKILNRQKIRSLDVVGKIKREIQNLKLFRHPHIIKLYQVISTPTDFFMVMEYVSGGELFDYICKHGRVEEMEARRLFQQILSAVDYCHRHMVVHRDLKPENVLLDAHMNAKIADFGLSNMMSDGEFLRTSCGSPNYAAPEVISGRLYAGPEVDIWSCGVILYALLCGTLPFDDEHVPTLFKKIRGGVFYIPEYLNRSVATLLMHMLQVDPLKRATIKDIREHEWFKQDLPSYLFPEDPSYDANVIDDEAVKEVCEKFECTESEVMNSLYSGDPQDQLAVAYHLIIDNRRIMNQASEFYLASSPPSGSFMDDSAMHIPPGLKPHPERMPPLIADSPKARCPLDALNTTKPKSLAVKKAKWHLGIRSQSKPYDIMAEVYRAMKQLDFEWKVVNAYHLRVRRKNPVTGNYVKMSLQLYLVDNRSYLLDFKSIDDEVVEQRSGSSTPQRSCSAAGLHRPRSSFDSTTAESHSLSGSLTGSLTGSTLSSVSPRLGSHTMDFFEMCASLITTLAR

[18] = biological target: Serine/threonine-protein kinase 3 (Homo sapiens) (UniProt Q13188); assay: Inhibition of recombinant full-length human MST2 (2 to end residues) assessed as residual activity at 1 uM using myelin basic protein as substrate measured after 40 mins in presence of [gamma33P]ATP by scintillation counting method relative to control
[19] = biological target: Eukaryotic translation initiation factor 2-alpha kinase 3 (Homo sapiens) (UniProt Q9NZJ5); assay: Inhibition of human PEK (536 to end residues) assessed as residual activity at 1 uM using RSRSRSRSRSRSRSR as substrate measured after 40 mins in presence of [gamma33P]ATP by scintillation counting method relative to control
[20] = biological target: Mitogen-activated protein kinase 14 (Homo sapiens) (UniProt Q16539); assay: Inhibition of recombinant human full length SAPK2a assessed as residual activity at 1 uM using myelin basic protein as substrate measured after 40 mins in presence of [gamma33P]ATP by scintillation counting method relative to control
[21] = biological target: SRSF protein kinase 1 (Homo sapiens) (UniProt Q96SB4); assay: Inhibition of human SRPK1 (2 to end residues) assessed as residual activity at 1 uM using RSRSRSRSRSRSRSR as substrate measured after 40 mins in presence of [gamma33P]ATP by scintillation counting method relative to control
[22] = tested on: Epidermal growth factor receptor (Homo sapiens), P00533 [T790M]; assay: Inhibition of recombinant human EGFR T790M mutant (696 to end residues) assessed as residual activity at 1 uM using poly(Glu, Tyr) 4:1 as substrate at 40 mins in presence of [gamma-33ATP] by scintillation counting based radiometry assay relative to control

Row | Compound | Activity [1] | Activity [2] | Activity [3] | Activity [4] | Activity [5] | Activity [6] | Activity [7] | Activity [8] | Activity [9] | Activity [10] | Activity [11] | Activity [12] | Activity [13] | Activity [14] | Activity [15] | Activity [16] | Activity [17] | Activity [18] | Activity [19] | Activity [20] | further results
1 | C=CCOC(=O)c1cc(-c2ccc(/C=C3/NC(=S)NC3=O)o2)ccc1Cl | 100% | 112% | 5% | 89% | 103% | 80% | 99% | 89% | 103% | 90% | 104% | 99% | 18% | 109% | 103% | 90% | 33% | 92% | 95% | 101% | Activity [21]: 104%; Activity [22]: 90%
2 | N=C1NC(=O)/C(=C\c2ccc(-c3cccc([N+](=O)[O-])c3)o2)S1 | 93% | 98% | 3% | 81% | 101% | 59% | 102% | 96% | 80% | 99% | 100% | 106% | 60% | 103% | 92% | 105% | 44% | 98% | 99% | 100% | Activity [21]: 94%; Activity [22]: 101%

— ChEMBL document CHEMBL4334438, “Discovery of novel glycogen synthase kinase-3α inhibitors: Structure-based virtual screening, preliminary SAR and biological evaluation for treatment of acute myeloid leukemia” (Eur J Med Chem, 2019)
